Assays:
Assay in all cases: relative viability (nuclei count vs DMSO), 5 days (fraction); higher = more cells survive
Palbociclib + OSI-027 = compound: CC(=O)c1c(C)c2cnc(Nc3ccc(N4CCNCC4)cn3)nc2n(C2CCCC2)c1=O [Palbociclib] + COc1cccc2cc(-c3nc([C@H]4CC[C@H](C(=O)O)CC4)n4ncnc(N)c34)[nH]c12 [OSI-027] (partner 0.5 µM)
Method in brief: (§1)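 One day after seeding in 1536-well plates, lung cancer cell lines were dosed by pin tool. Dosing was either single-drug or a fixed anchor-drug dose plus five library-drug doses (not always all listed) in √10 steps. After 5 days, nuclei were stained in one fix-and-stain step and counted on 4× images, and relative viability is the nuclei count of treated wells over that of vehicle wells, given as the median of duplicate plates.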

Palbociclib + Linsitinib = compound: CC(=O)c1c(C)c2cnc(Nc3ccc(N4CCNCC4)cn3)nc2n(C2CCCC2)c1=O [Palbociclib] + C[C@]1(O)C[C@@H](c2nc(-c3ccc4ccc(-c5ccccc5)nc4c3)c3c(N)nccn32)C1 [Linsitinib] (partner 1 µM)
Method in brief: as §1

Palbociclib + Foretinib = compound: CC(=O)c1c(C)c2cnc(Nc3ccc(N4CCNCC4)cn3)nc2n(C2CCCC2)c1=O [Palbociclib] + COc1cc2c(Oc3ccc(NC(=O)C4(C(=O)Nc5ccc(F)cc5)CC4)cc3F)ccnc2cc1OCCCN1CCOCC1 [Foretinib] (partner 0.25 µM)
Method in brief: as §1

Palbociclib + Alpelisib = compound: CC(=O)c1c(C)c2cnc(Nc3ccc(N4CCNCC4)cn3)nc2n(C2CCCC2)c1=O [Palbociclib] + Cc1nc(NC(=O)N2CCC[C@H]2C(N)=O)sc1-c1ccnc(C(C)(C)C(F)(F)F)c1 [Alpelisib] (partner 2 µM)
Method in brief: as §1

Cell Line	relative viability (Palbociclib + OSI-027; first compound 0.01 µM)	relative viability (Palbociclib + OSI-027; first compound 0.03162 µM)	relative viability (Palbociclib + OSI-027; first compound 0.1 µM)	relative viability (Palbociclib + OSI-027; first compound 0.3162 µM)	relative viability (Palbociclib + OSI-027; first compound 1 µM)	relative viability (Palbociclib + Linsitinib; first compound 0.01 µM)	relative viability (Palbociclib + Linsitinib; first compound 0.03162 µM)	relative viability (Palbociclib + Linsitinib; first compound 0.1 µM)	relative viability (Palbociclib + Linsitinib; first compound 0.3162 µM)	relative viability (Palbociclib + Linsitinib; first compound 1 µM)	relative viability (Palbociclib + Foretinib; first compound 0.01 µM)	relative viability (Palbociclib + Foretinib; first compound 0.03162 µM)	relative viability (Palbociclib + Foretinib; first compound 0.1 µM)	relative viability (Palbociclib + Foretinib; first compound 0.3162 µM)	relative viability (Palbociclib + Foretinib; first compound 1 µM)	relative viability (Palbociclib + Alpelisib; first compound 0.01 µM)	relative viability (Palbociclib + Alpelisib; first compound 0.03162 µM)	relative viability (Palbociclib + Alpelisib; first compound 0.1 µM)	relative viability (Palbociclib + Alpelisib; first compound 0.3162 µM)	relative viability (Palbociclib + Alpelisib; first compound 1 µM)
SW 1573	0.662	0.468	0.389	0.357	0.235	0.69	0.733	0.639	0.669	0.5	0.867	1	0.862	0.742	0.785	0.676	0.744	0.571	0.57	0.49
NCI-H838	0.318	0.348	0.308	0.317	0.185	1.07	0.96	0.708	0.82	0.494	1.03	0.955	0.71	0.823	0.515	1.03	0.918	0.829	0.883	0.441
NCI-H2087	0.433		0.361	0.278	0.25	0.932	0.837	0.826	0.503	0.541	0.951		0.838	0.631	0.47	1.18	0.962	0.824	0.68	0.531
NCI-H1666	0.831	0.672	0.682	0.747	0.471	0.868	0.751	0.634	0.619	0.37	0.998	0.941	0.875	0.7	0.553	0.976	0.765	0.792	0.611	0.443
HCC-366	0.916		0.722	0.731	0.482	0.482		0.506	0.494	0.344	0.919		0.893	0.953	0.797	0.517		0.345	0.209	0.204
NCI-H1437	0.747	0.734	0.711	0.65	0.291	1.02	1.02	0.872	0.847	0.408	1.27	1.16	0.992	0.991	0.783	0.946	1.06	0.857	0.889	0.48
HARA	0.509		0.272	0.303	0.122	1.02	0.78	0.83	0.454	0.361	0.828		0.763	0.534	0.332	0.82	0.718	0.557	0.405	0.31
H3255	0.597	0.49	0.405	0.469	0.382	1.16	0.873	0.844	0.775	0.514	0.879	0.898	0.693	0.641	0.57	0.714	0.599	0.469	0.488	0.36
EMC-BAC-2	0.368	0.346	0.29	0.318	0.29	0.815	0.709	0.712	0.651	0.594	1	0.931	0.804	0.821	0.61	0.738	0.646	0.602	0.665	0.508
COR-L 105	0.676	0.506	0.453	0.429	0.336	0.987	0.91	0.509	0.571	0.429	0.841	0.826	0.992	0.595	0.449	0.916	0.888	0.792	0.7	0.444
UMC-11	0.462	0.417	0.302	0.308	0.286	1.02	0.894	0.888	0.536	0.326	1.01	0.86	0.698	0.459	0.275	0.996	0.931	0.604	0.459	0.254
RERF-LC-KJ	0.541	0.583	0.508	0.598	0.64	0.954	0.887	0.919	1.04	0.958	0.868	0.761	0.88	0.861	0.898	0.893	0.866	0.827	0.798	0.867
EKVX	0.713	0.664	0.6	0.575	0.366	1.01	0.786	0.722	0.781	0.492	0.907	0.412	0.748	0.757	0.463	1.04	0.716	0.661	0.604	0.401
NCI-H358	0.807	0.62	0.501	0.455	0.138	0.673	0.559	0.354	0.247	0.229	0.718	0.545	0.523	0.412	0.226	0.777	0.709	0.395	0.312	0.257
HCC-78	0.424	0.382	0.315	0.319	0.254	0.46	0.329	0.302	0.39	0.273	0.54	0.453	0.481	0.509	0.364	0.305	0.242	0.217	0.263	0.216
LU99A	0.305	0.274	0.221	0.238	0.223	0.587	0.46	0.454	0.355	0.327	0.782	0.82	0.765	0.724	0.583	0.539	0.432	0.425	0.39	0.33

Source: the supplement of paper PMC10307832
